PubChem BioAssay AID1919004 (Molecular Pharmacology Branch, DTP, NCI, 2023)

System: 883617-216-R-J1-PDC complex spheroids, growth, % test/control
Experiment: Anticancer human tumor 883617-216-R-J1-PDC patient-derived bladder carcinoma cell line growth inhibition [AhR]
Conditions: for IC50: curve of first compound; for viability, T/C: stronger effect = lower value
Outline: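 Spheroids combined tumor cells with HUVEC endothelial cells and human MSCs as stroma. AhR antagonists were paired with standard or investigational drugs, each dosed in half-log steps down from near clinical Cmax, or from 10 microM where Cmax was unknown.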

[1] = second compound 0.1 µM, first compound 0.0316 µM
[2] = second compound 0.1 µM, first compound 0.1 µM
[3] = second compound 0.316 µM, first compound 0.0316 µM
[4] = second compound 0.316 µM, first compound 0.1 µM
[5] = second compound 1 µM, first compound 0.0316 µM
[6] = second compound 1 µM, first compound 0.1 µM
[7] = second compound 3.16 µM, first compound 0.0316 µM
[8] = second compound 3.16 µM, first compound 0.1 µM
[9] = second compound 10 µM, first compound 0.0316 µM
[10] = second compound 10 µM, first compound 0.1 µM
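Note: exposure lasted 7 days after dosing on day 3 of spheroid growth.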

For `CC1COCCN1c1cc(C2(S(C)(=N)=O)CC2)nc(-c2ccnc3[nH]ccc23)n1` (stereo not given) + Cc1ccccc1N=Nc1ccc(NC(=O)c2ccnn2C)c(C)c1, the IC50 (second compound 0.1 µM) was over 10000 nM, the IC50 (second compound 0.316 µM) was over 10000 nM and the IC50 (second compound 1 µM) was over 10000 nM. The IC50 (second compound 3.16 µM) was over 10000 nM, the IC50 (second compound 10 µM) was over 10000 nM and the viability, T/C [1] was 97.9%. It also gave a viability, T/C [2] of 97%, a viability, T/C (second compound 0.1 µM, first compound 0.316 µM) of 88% and a viability, T/C (second compound 0.1 µM, first compound 1 µM) of 84.9%. The viability, T/C (second compound 0.1 µM, first compound 3.16 µM) was 70.9%, the viability, T/C (second compound 0.1 µM, first compound 10 µM) was 54.6% and the viability, T/C [3] was 90.5%. It also gave a viability, T/C [4] of 93.6%, a viability, T/C (second compound 0.316 µM, first compound 0.316 µM) of 81.2% and a viability, T/C (second compound 0.316 µM, first compound 1 µM) of 89.9%. It also gave a viability, T/C (second compound 0.316 µM, first compound 3.16 µM) of 82%, a viability, T/C (second compound 0.316 µM, first compound 10 µM) of 55.4% and a viability, T/C [5] of 87.7%. It also gave a viability, T/C [6] of 90.9%, a viability, T/C (second compound 1 µM, first compound 0.316 µM) of 82.4% and a viability, T/C (second compound 1 µM, first compound 1 µM) of 84.8%. The viability, T/C (second compound 1 µM, first compound 3.16 µM) was 77.1%, the viability, T/C (second compound 1 µM, first compound 10 µM) was 54.8% and the viability, T/C [7] was 86.5%. The viability, T/C [8] was 77.6%, the viability, T/C (second compound 3.16 µM, first compound 0.316 µM) was 75% and the viability, T/C (second compound 3.16 µM, first compound 1 µM) was 75%. The viability, T/C (second compound 3.16 µM, first compound 3.16 µM) was 61.5%, the viability, T/C (second compound 3.16 µM, first compound 10 µM) was 58.8% and the viability, T/C [9] was 75.7%. The viability, T/C [10] was 81.5%, the viability, T/C (second compound 10 µM, first compound 0.316 µM) was 82% and the viability, T/C (second compound 10 µM, first compound 1 µM) was 77.3%. The viability, T/C (second compound 10 µM, first compound 3.16 µM) was 73.5% and the viability, T/C (second compound 10 µM, first compound 10 µM) was 57.1%.

Compound `CC[C@@]1(O)C(=O)OCc2c1cc1n(c2=O)Cc2cc3c(CN(C)C)c(O)ccc3nc2-1` + Cc1cncc(-c2nc(NCCc3c[nH]c4ccccc34)c3ncn(C(C)C)c3n2)c1 has an IC50 (second compound 0.1 µM) of over 100 nM, an IC50 (second compound 0.316 µM) of over 100 nM and an IC50 (second compound 1 µM) of over 100 nM. The IC50 (second compound 3.16 µM) was over 100 nM, the IC50 (second compound 10 µM) was under 0.316 nM and the viability, T/C (second compound 0.1 µM, first compound 0.000316 µM) was 76.2%. It also gave a viability, T/C (second compound 0.1 µM, first compound 0.001 µM) of 75.1%, a viability, T/C (second compound 0.1 µM, first compound 0.00316 µM) of 79.8% and a viability, T/C (second compound 0.1 µM, first compound 0.01 µM) of 71%. The viability, T/C [1] was 69.8%, the viability, T/C [2] was 74.3% and the viability, T/C (second compound 0.316 µM, first compound 0.000316 µM) was 86.3%. It also gave a viability, T/C (second compound 0.316 µM, first compound 0.001 µM) of 80.7%, a viability, T/C (second compound 0.316 µM, first compound 0.00316 µM) of 74.3% and a viability, T/C (second compound 0.316 µM, first compound 0.01 µM) of 79.4%. The viability, T/C [3] was 68.1%, the viability, T/C [4] was 64.7% and the viability, T/C (second compound 1 µM, first compound 0.000316 µM) was 93.5%. For the same compound, the viability, T/C (second compound 1 µM, first compound 0.001 µM) was 93.9%, the viability, T/C (second compound 1 µM, first compound 0.00316 µM) was 83.9% and the viability, T/C (second compound 1 µM, first compound 0.01 µM) was 85.6%. For the same compound, the viability, T/C [5] was 88.9%, the viability, T/C [6] was 76.7% and the viability, T/C (second compound 3.16 µM, first compound 0.000316 µM) was 96.6%. For the same compound, the viability, T/C (second compound 3.16 µM, first compound 0.001 µM) was 84.6%, the viability, T/C (second compound 3.16 µM, first compound 0.00316 µM) was 89.7% and the viability, T/C (second compound 3.16 µM, first compound 0.01 µM) was 91.9%. The viability, T/C [7] was 84.6%, the viability, T/C [8] was 73.1% and the viability, T/C (second compound 10 µM, first compound 0.000316 µM) was 45.7%. For the same compound, the viability, T/C (second compound 10 µM, first compound 0.001 µM) was 47.8%, the viability, T/C (second compound 10 µM, first compound 0.00316 µM) was 47.9% and the viability, T/C (second compound 10 µM, first compound 0.01 µM) was 46.8%. The viability, T/C [9] was 35.4% and the viability, T/C [10] was 32.1%.

With `CCc1c2c(nc3ccc(O)cc13)-c1cc3c(c(=O)n1C2)COC(=O)[C@]3(O)CC` + Cc1ccccc1N=Nc1ccc(NC(=O)c2ccnn2C)c(C)c1 the IC50 (second compound 0.1 µM) was 185 nM, the IC50 (second compound 0.316 µM) was 163 nM and the IC50 (second compound 1 µM) was 121 nM. The IC50 (second compound 3.16 µM) was 109 nM, the IC50 (second compound 10 µM) was 199 nM and the viability, T/C (second compound 0.1 µM, first compound 0.000949 µM) was 92%. It also gave a viability, T/C (second compound 0.1 µM, first compound 0.003 µM) of 84%, a viability, T/C (second compound 0.1 µM, first compound 0.00949 µM) of 72.7% and a viability, T/C (second compound 0.1 µM, first compound 0.03 µM) of 70.2%. The viability, T/C (second compound 0.1 µM, first compound 0.0949 µM) was 60.3%, the viability, T/C (second compound 0.1 µM, first compound 0.3 µM) was 42.1% and the viability, T/C (second compound 0.316 µM, first compound 0.000949 µM) was 80.8%. The viability, T/C (second compound 0.316 µM, first compound 0.003 µM) was 82.2%, the viability, T/C (second compound 0.316 µM, first compound 0.00949 µM) was 77.6% and the viability, T/C (second compound 0.316 µM, first compound 0.03 µM) was 66.8%. For the same compound, the viability, T/C (second compound 0.316 µM, first compound 0.0949 µM) was 56.5%, the viability, T/C (second compound 0.316 µM, first compound 0.3 µM) was 43.6% and the viability, T/C (second compound 1 µM, first compound 0.000949 µM) was 80.9%. For the same compound, the viability, T/C (second compound 1 µM, first compound 0.003 µM) was 83.8%, the viability, T/C (second compound 1 µM, first compound 0.00949 µM) was 79.1% and the viability, T/C (second compound 1 µM, first compound 0.03 µM) was 61.6%. The viability, T/C (second compound 1 µM, first compound 0.0949 µM) was 54.4%, the viability, T/C (second compound 1 µM, first compound 0.3 µM) was 44% and the viability, T/C (second compound 3.16 µM, first compound 0.000949 µM) was 81.7%. For the same compound, the viability, T/C (second compound 3.16 µM, first compound 0.003 µM) was 84%, the viability, T/C (second compound 3.16 µM, first compound 0.00949 µM) was 70.7% and the viability, T/C (second compound 3.16 µM, first compound 0.03 µM) was 64.7%. It also gave a viability, T/C (second compound 3.16 µM, first compound 0.0949 µM) of 51.5%, a viability, T/C (second compound 3.16 µM, first compound 0.3 µM) of 39.4% and a viability, T/C (second compound 10 µM, first compound 0.000949 µM) of 78.8%. For the same compound, the viability, T/C (second compound 10 µM, first compound 0.003 µM) was 77.2%, the viability, T/C (second compound 10 µM, first compound 0.00949 µM) was 72.6% and the viability, T/C (second compound 10 µM, first compound 0.03 µM) was 74.8%. For the same compound, the viability, T/C (second compound 10 µM, first compound 0.0949 µM) was 56.8% and the viability, T/C (second compound 10 µM, first compound 0.3 µM) was 44.9%.
